Assay type in all cases: biochemical
For test [1], the target named is T1, recombinant alpha-glucosidase II (murine full-length glucosidase II, alpha and beta subunits, Glu 2) (Mus musculus, UniProt Q8BHN3).
T1 construct: made in house; host or cells: HEK-293T cells transduced with BacMam viruses (75% alpha, 25% beta); protein harvested from culture supernatant
Description: Alpha-glucosidase II assay (4-methylumbelliferyl-alpha-D-pyranoside substrate, fluorescence). Conditions: Glucosidase 2; read-out: Glu2 IC50.

Test [2] concerns the target T2, recombinant alpha-glucosidase I (human full-length glucosidase I, Glu 1) (Homo sapiens, UniProt Q13724).
T2 construct: 6-His (C); made in house; host or cells: HEK-293T cells transduced with BacMam virus (virus raised in Sf9)
T2 sequence (Q13724 1-837): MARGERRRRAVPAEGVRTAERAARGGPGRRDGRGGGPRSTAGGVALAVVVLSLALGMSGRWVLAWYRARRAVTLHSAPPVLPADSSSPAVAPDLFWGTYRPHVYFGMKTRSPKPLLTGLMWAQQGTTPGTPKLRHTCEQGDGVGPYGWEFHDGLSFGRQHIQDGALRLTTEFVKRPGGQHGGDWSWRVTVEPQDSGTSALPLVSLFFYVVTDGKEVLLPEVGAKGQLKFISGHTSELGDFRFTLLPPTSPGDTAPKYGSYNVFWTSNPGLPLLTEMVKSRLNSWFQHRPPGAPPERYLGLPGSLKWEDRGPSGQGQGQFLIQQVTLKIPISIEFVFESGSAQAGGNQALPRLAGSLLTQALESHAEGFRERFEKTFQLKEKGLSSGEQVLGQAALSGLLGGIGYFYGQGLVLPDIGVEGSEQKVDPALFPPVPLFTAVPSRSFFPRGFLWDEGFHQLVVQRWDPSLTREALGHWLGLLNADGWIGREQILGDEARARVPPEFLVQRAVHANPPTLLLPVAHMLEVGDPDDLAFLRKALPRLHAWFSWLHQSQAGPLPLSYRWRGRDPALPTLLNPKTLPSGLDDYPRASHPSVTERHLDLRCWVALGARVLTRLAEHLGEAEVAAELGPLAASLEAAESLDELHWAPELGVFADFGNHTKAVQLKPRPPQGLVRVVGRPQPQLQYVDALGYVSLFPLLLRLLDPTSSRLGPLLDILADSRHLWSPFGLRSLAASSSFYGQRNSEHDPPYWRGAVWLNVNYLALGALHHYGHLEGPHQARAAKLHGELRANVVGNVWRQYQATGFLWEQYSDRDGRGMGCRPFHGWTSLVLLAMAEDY
Description: Alpha-glucosidase I assay (Amplex Red glucose detection, synthetic trisaccharide substrate). Conditions: Glucosidase 1; read-out: Glu 1 IC50. The gist of the method:
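Human full-length glucosidase I, His-tagged, […] and Ni-purified. Enzyme preincubated with compound dilutions 60 min at 37° C, then synthetic trisaccharide substrate 90 min at 37° C; stopped with 1.5M Tris pH 8.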

Test [3] deals with rat maltase (partially purified alpha-glucosidase from intestinal rat powder). Description: Intestinal alpha-glucosidase assay, maltose substrate (Glucose GO Kit). The gist of the method:
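First step: 60 min, 37 °C, compound with partially purified rat intestinal alpha-glucosidase. Next, maltose or sucrose for 30 min at 37 °C, ended at 90 °C for 5 min. Glucose quantified enzymatically; concentration–inhibition data fitted 4-PL for IC50.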

Test [4] has as its target rat sucrase (partially purified alpha-glucosidase from intestinal rat powder) (Rattus norvegicus, UniProt P23739). Description: Intestinal alpha-glucosidase assay, sucrose substrate (Glucose GO Kit). An outline of the steps: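 Enzyme from intestinal rat powder, partially purified, is exposed to compound for 60 min at 37 °C. Disaccharide substrate (maltose or sucrose respectively) then reacts 30 min at 37 °C. Heat-stopped samples are assayed for glucose, and percent inhibition versus concentration gives IC50 via 4-PL.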

For 17 compounds, IC50 results are on record in patent publication US20250197372A1 (priority 2020, published 2025).

Where only a bound is given, the exact number is not on record here.

Sequence of rat sucrase (partially purified alpha-glucosidase from intestinal rat powder) (P23739 whole entry): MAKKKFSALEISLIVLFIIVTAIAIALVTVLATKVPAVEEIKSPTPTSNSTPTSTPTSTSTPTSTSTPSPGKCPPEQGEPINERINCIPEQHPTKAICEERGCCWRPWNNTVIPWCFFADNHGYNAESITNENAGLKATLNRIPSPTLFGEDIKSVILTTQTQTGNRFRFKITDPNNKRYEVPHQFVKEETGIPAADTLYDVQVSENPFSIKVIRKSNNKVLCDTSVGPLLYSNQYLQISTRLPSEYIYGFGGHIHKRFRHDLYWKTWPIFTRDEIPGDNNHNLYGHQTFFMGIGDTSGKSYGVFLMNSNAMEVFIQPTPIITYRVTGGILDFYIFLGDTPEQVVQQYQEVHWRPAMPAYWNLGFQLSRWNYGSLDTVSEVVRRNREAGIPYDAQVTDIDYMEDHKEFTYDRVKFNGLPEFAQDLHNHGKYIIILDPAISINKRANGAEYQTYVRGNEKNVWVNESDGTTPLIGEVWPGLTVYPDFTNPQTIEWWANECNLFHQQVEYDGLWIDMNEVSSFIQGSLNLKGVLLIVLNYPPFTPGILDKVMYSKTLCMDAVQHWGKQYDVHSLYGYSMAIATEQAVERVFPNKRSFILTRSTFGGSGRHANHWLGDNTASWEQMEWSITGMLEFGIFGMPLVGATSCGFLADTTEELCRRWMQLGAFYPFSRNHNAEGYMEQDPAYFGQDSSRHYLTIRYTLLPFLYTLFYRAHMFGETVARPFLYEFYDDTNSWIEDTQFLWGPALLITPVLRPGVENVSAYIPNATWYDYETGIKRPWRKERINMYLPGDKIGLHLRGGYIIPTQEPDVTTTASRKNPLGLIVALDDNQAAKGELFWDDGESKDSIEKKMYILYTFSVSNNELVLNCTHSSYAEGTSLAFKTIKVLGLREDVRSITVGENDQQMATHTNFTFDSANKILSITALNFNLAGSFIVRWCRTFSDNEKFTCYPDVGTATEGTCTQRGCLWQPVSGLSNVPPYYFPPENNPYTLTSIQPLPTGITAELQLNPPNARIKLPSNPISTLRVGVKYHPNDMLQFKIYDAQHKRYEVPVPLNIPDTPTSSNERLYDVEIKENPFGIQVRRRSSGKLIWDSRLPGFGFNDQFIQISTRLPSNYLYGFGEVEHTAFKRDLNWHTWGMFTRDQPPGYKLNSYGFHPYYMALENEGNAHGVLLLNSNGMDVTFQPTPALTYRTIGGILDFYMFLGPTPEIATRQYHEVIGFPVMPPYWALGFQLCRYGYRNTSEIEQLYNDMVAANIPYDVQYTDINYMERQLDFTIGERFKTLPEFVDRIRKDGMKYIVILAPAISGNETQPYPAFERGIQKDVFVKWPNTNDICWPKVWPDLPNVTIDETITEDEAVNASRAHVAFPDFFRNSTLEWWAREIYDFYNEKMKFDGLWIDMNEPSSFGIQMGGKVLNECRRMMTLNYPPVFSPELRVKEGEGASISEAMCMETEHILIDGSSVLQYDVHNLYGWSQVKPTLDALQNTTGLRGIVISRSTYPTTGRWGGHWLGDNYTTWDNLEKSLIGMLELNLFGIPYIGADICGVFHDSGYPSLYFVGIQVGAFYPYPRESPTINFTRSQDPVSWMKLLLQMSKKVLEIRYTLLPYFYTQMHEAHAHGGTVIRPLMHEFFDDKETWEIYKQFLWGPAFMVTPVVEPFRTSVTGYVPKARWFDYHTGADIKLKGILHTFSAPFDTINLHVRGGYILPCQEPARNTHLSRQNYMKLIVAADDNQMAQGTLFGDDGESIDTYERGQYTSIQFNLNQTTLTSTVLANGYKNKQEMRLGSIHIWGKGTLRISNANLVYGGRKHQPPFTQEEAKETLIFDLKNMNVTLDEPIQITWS
T1 sequence (O08795 15-521): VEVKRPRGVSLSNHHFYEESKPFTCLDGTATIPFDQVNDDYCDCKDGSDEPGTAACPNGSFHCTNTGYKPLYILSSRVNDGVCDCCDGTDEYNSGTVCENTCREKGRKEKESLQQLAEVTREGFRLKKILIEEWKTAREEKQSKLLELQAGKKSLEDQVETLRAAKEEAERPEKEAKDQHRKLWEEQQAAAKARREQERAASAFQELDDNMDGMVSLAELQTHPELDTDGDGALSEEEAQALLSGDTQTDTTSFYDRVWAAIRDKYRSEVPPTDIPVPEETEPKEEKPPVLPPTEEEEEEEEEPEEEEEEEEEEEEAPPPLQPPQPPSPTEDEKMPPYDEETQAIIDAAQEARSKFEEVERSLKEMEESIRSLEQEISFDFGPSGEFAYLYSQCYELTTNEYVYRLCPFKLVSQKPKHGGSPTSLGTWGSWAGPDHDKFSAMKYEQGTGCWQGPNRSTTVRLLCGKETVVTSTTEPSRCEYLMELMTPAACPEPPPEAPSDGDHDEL
T1 sequence (Q8BHN3 33-944): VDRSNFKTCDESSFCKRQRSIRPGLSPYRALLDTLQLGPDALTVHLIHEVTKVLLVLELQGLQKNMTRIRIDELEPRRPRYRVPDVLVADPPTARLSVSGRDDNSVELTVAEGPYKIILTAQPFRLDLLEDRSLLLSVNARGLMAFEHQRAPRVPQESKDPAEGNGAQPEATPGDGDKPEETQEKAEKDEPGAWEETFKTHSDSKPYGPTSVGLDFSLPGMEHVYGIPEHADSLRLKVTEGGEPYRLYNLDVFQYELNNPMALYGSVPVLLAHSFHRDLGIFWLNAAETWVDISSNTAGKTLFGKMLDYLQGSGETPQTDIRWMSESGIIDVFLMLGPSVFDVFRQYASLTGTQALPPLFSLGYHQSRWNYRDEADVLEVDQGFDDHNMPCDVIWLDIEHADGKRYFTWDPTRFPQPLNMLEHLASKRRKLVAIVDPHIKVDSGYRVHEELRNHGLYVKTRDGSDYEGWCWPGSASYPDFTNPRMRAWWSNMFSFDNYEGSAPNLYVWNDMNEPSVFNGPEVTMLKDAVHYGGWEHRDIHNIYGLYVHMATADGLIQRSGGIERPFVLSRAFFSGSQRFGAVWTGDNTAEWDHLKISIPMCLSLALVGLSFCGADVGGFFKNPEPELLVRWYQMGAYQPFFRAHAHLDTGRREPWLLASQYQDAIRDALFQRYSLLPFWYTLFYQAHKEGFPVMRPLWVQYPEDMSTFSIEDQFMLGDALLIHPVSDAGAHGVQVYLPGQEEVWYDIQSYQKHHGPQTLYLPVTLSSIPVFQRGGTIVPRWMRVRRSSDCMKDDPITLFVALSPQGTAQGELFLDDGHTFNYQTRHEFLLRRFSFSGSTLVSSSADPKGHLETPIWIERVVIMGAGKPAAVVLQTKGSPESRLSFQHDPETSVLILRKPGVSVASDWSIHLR

Turning to `OC[C@@H]1[C@@H](O)[C@H](O)[C@@H](O)CN1CCCCCCNc1cc(Cl)cc(-c2ncco2)c1` [Compound 1211, (2R,3R,4R,5S)-1-(6-{[3-chloro-5-(1,3-oxazol-2-yl)phenyl]amino}hexyl)-2-(hydroxymethyl)piperidine-3,4,5-triol], the IC50 worked out at 0.002 µM in test [1], 0.112 µM in test [2], 0.001 µM in test [3] and 0.072 µM in test [4].

In the case of `OC[C@@H]1[C@@H](O)[C@H](O)[C@@H](O)CN1CCCCCCNc1cc(Cl)cc(-c2ncccn2)c1` [Compound 1212, (2R,3R,4R,5S)-1-(6-{[3-chloro-5-(pyrimidin-2-yl)phenyl]amino}hexyl)-2-(hydroxymethyl)piperidine-3,4,5-triol], the IC50 is 0.005 µM in test [1], 0.105 µM in test [2], 0.002 µM in test [3] and 0.089 µM in test [4].

On to `COc1cc(NCCCCCCN2C[C@H](O)[C@@H](O)[C@H](O)[C@H]2CO)cc(-c2ncco2)c1` [Compound 1216, (2R,3R,4R,5S)-2-(hydroxymethyl)-1-(6-{[3-methoxy-5-(1,3-oxazol-2-yl)phenyl]amino}hexyl)piperidine-3,4,5-triol], for which the IC50 in test [1] was found to be 0.002 µM; in test [2], 0.067 µM; in test [3], 0.008 µM; in test [4], 0.796 µM.

For `COc1cc(NCCCCCCN2C[C@H](O)[C@@H](O)[C@H](O)[C@H]2CO)cc(-c2ncccn2)c1` [Compound 1217, (2R,3R,4R,5S)-2-(hydroxymethyl)-1-(6-{[3-methoxy-5-(pyrimidin-2-yl)phenyl]amino}hexyl)piperidine-3,4,5-triol], the IC50 turned out to be 0.011 µM in test [1], 0.128 µM in test [2], 0.011 µM in test [3] and 0.225 µM in test [4].

`COc1cc(NCCCCCCN2C[C@H](O)[C@@H](O)[C@H](O)[C@H]2CO)cc(-c2ncc[nH]2)c1` [Compound 1219, (2R,3R,4R,5S)-2-(hydroxymethyl)-1-(6-{[3-(1H-imidazol-2-yl)-5-methoxyphenyl]amino}hexyl)piperidine-3,4,5-triol]: the IC50 in test [1] turned out to be 0.018 µM; in test [2], 0.093 µM; in test [3], 0.01 µM; in test [4], 0.064 µM.

For `COCCCCCN(CCCNc1ccc(N=[N+]=[N-])cc1[N+](=O)[O-])CCCN1C[C@H](O)[C@@H](O)[C@H](O)[C@H]1CO` [Compound 1221, (2R,3R,4R,5S)-1-[3-({3-[(4-azido-2-nitrophenyl)amino]propyl}(5-methoxypentyl)amino)propyl]-2-(hydroxymethyl)piperidine-3,4,5-triol], the IC50 in test [1] amounted to 0.22 µM; in test [2], 2.23 µM; in test [3], 0.233 µM; in test [4] it was 0.424 µM.

`NC(=O)CCN(CCNc1ccc(-c2ncccn2)cc1[N+](=O)[O-])CCN1C[C@H](O)[C@@H](O)[C@H](O)[C@H]1CO` [Compound 1226, 3-[(2-{[2-nitro-4-(pyrimidin-2-yl)phenyl]amino}ethyl)({2-[(2R,3R,4R,5S)-3,4,5-trihydroxy-2-(hydroxymethyl)piperidin-1-yl]ethyl})amino]propanamide]: the IC50 was found to be 1.35 µM in test [1], 9.53 µM in test [2], 4.63 µM in test [3] and 0.793 µM in test [4].

As to `O=S(=O)(Nc1cc(-c2ncccn2)ccc1NCCCCCCN1C[C@H](O)[C@@H](O)[C@H](O)[C@H]1CO)C1CC1` [Compound 1227, N-[5-(pyrimidin-2-yl)-2-({6-[(2R,3R,4R,5S)-3,4,5-trihydroxy-2-(hydroxy-methyl)piperidin-1-yl]hexyl}amino)phenyl]cyclopropanesulfonamide], the IC50 in test [1] came to 0.017 µM; in test [2], 0.169 µM; in test [3], 0.012 µM; in test [4] it was 0.104 µM.

As for `OC[C@@H]1[C@@H](O)[C@H](O)[C@@H](O)CN1CCCCCCNc1ccc(-c2ncccn2)cc1Cl` [Compound 1228, (2R,3R,4R,5S)-1-(6-{[2-chloro-4-(pyrimidin-2-yl)phenyl]amino}hexyl)-2-(hydroxymethyl)piperidine-3,4,5-triol], the IC50 in test [1] was 0.011 µM; in test [2], 0.019 µM; in test [3] it was 0.001 µM; in test [4] it was 0.061 µM.

In the case of `OC[C@@H]1[C@@H](O)[C@H](O)[C@@H](O)CN1CCCCCCNc1ccc(-c2ncccn2)cc1F` [Compound 1229, (2R,3R,4R,5S)-1-(6-{[2-fluoro-4-(pyrimidin-2-yl)phenyl]amino}hexyl)-2-(hydroxymethyl)piperidine-3,4,5-triol], the IC50 in test [1] is 0.037 µM; in test [2], 0.094 µM; in test [3] it was 0.024 µM; in test [4] it was 0.07 µM.

`COc1cc(-c2ncccn2)ccc1NCCCCCCN1C[C@H](O)[C@@H](O)[C@H](O)[C@H]1CO` [Compound 1231, (2R,3R,4R,5S)-2-(hydroxymethyl)-1-(6-{[2-methoxy-4-(pyrimidin-2-yl)phenyl]amino}hexyl)piperidine-3,4,5-triol]: the IC50 in test [1] came out at 0.03 µM; in test [2] it was 0.187 µM; in test [3], 0.03 µM; in test [4], 0.067 µM.

For the compound `Cc1cc(-c2ncccn2)ccc1NCCCCCCN1C[C@H](O)[C@@H](O)[C@H](O)[C@H]1CO` [Compound 1233, (2R,3R,4R,5S)-2-(hydroxymethyl)-1-(6-{[2-methyl-4-(pyrimidin-2-yl)phenyl]amino}hexyl)piperidine-3,4,5-triol], the IC50 in test [1] came out at 0.023 µM; in test [2] it was 0.123 µM; in test [3], 0.032 µM; in test [4], 0.13 µM.

Regarding `[N-]=[N+]=Nc1ccc(NCCN(CCC(N)=O)CCN2C[C@H](O)[C@@H](O)[C@H](O)[C@H]2CO)c([N+](=O)[O-])c1` [Compound 1235], the IC50 in test [1] stood at 0.53 µM; in test [2], 8.11 µM; in test [3], 7.16 µM; in test [4] it was 8.65 µM.

For `CN(C)Cc1ccc(NCCCCCCN2C[C@H](O)[C@@H](O)[C@H](O)[C@H]2CO)c(F)c1` [Compound 1236, (2R,3R,4R,5S)-1-[6-({4-[(dimethylamino)methyl]-2-fluorophenyl}amino)hexyl]-2-(hydroxymethyl)piperidine-3,4,5-triol], the IC50 in test [1] was 0.039 µM; in test [2], 0.296 µM; in test [3], 0.036 µM; in test [4], 0.254 µM.

Turning to `Nc1ccc(NCCc2ccccc2CCN2C[C@H](O)[C@@H](O)[C@H](O)[C@H]2CO)c([N+](=O)[O-])c1Cl` [Compound 1239, (2R,3R,4R,5S)-1-[2-(2-{2-[(4-amino-3-chloro-2-nitrophenyl)amino]ethyl}phenyl)ethyl]-2-(hydroxymethyl)piperidine-3,4,5-triol], the IC50 in test [1] was 0.108 µM; in test [2] it was 1.44 µM; in test [3] it was less than 0.001 µM; in test [4], 0.294 µM.

As to `[N-]=[N+]=Nc1ccc(NCCc2cccc(CCN3C[C@H](O)[C@@H](O)[C@H](O)[C@H]3CO)c2)c([N+](=O)[O-])c1` [Compound 1240, (2R,3R,4R,5S)-1-[2-(3-{2-[(4-azido-2-nitrophenyl)amino]ethyl}phenyl)ethyl]-2-(hydroxymethyl)piperidine-3,4,5-triol], the IC50 in test [1] was 0.045 µM; in test [2], 0.283 µM; in test [3] it was 0.701 µM; in test [4] it was 0.318 µM.

Take `CN(C)Cc1ccc(NCCCCCCN2C[C@H](O)[C@@H](O)[C@H](O)[C@H]2CO)c(C(=O)O)c1` [Compound 1245, 5-[(dimethylamino)methyl]-2-({6-[(2R,3R,4R,5S)-3,4,5-trihydroxy-2-(hydroxymethyl)piperidin-1-yl]hexyl}amino)benzoic acid]: the IC50 was 0.051 µM in test [1], 0.292 µM in test [2], 0.032 µM in test [3] and 0.12 µM in test [4].

As a reminder, the IC50 is the point on the concentration scale where inhibition reaches its midpoint.
